Results reported in patent US6737383B1, “Herbicidal oxadiazolidines” (priority 1999, dated 2004).

Key:
[1] = tested on: smallflower flatsedge; experiment: Test B flood test smallflower flatsedge; type: in vivo, Cyperus difformis
How it was run: (§1)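 Flood test on plants grown to the 2-leaf stage; treated plants kept in greenhouse twelve to sixteen days, then visually rated against controls on a 0 (no effect) to 10 (complete control) scale.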

[2] = tested on: pigweed; experiment: Test B pre/postemergence pigweed; type: in vivo, Amaranthus retroflexus
How it was run: (§2)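 Herbicidal effect was estimated by eye on a ten-point control scale after plants spent twelve to sixteen days in a greenhouse following soil or foliar treatment. Foliar sprays targeted plants at one to four leaves; all doses were formulated in a non-phytotoxic solvent with surfactant.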

[3] = tested on: wheat; experiment: Test B pre/postemergence wheat; type: in vivo, Triticum aestivum
How it was run: as §2

[4] = tested on: rice; experiment: Test B flood test rice; type: in vivo, Oryza sativa
How it was run: as §1

[5] = tested on: velvetleaf; experiment: Test B pre/postemergence velvetleaf; type: in vivo, Abutilon theophrasti
How it was run: as §2

[6] = tested on: blackgrass; experiment: Test B pre/postemergence blackgrass; type: in vivo, Alopecurus myosuroides
How it was run: as §2

[7] = tested on: purple nutsedge; experiment: Test B pre/postemergence purple nutsedge; type: in vivo, Cyperus rotundus
How it was run: as §2

[8] = tested on: crabgrass; experiment: Test B pre/postemergence crabgrass; type: in vivo, Digitaria sanguinalis
How it was run: as §2

[9] = tested on: duck salad; experiment: Test B flood test duck salad; type: in vivo, Heteranthera limosa
How it was run: as §1

[10] = tested on: morningglory; experiment: Test B pre/postemergence morningglory; type: in vivo, Ipomoea hederacea
How it was run: as §2

[11] = tested on: giant foxtail; experiment: Test B pre/postemergence giant foxtail; type: in vivo, Setaria faberii
How it was run: as §2

[12] = tested on: corn; experiment: Test B pre/postemergence corn; type: in vivo, Zea mays
How it was run: as §2

[13] = tested on: surinam grass; experiment: Test B pre/postemergence surinam grass; type: in vivo, Brachiaria decumbens
How it was run: as §2

[14] = tested on: wild oat; experiment: Test B pre/postemergence wild oat; type: in vivo, Avena fatua
How it was run: as §2

[15] = tested on: bedstraw; experiment: Test B pre/postemergence bedstraw; type: in vivo, Galium aparine
How it was run: as §2

[16] = tested on: soybean; experiment: Test B pre/postemergence soybean; type: in vivo, Glycine max
How it was run: as §2

[17] = Rate 62 g/ha, headed Pre-emergence (flood test species), scale 0 to 10 (0 no effect, 10 complete control)
[18] = Rate 125 g/ha, Pre-emergence, flood test species, scale 0 to 10 where 0 is no effect and 10 is complete control
[19] = Rate 250 g/ha, Pre-emergence, flood-test species, scale 0 to 10, 0 is no effect, 10 is complete control
[20] = Rate 500 g/ha, Pre-emergence, flood test species, scale 0 to 10 (0 no effect, 10 complete control)
[21] = Preemergence, Rate 62 g/ha, scale of 0 to 10 where 0 is no effect and 10 is complete control
[22] = Preemergence, Rate 125 g/ha, 0 is no effect, 10 is complete control
[23] = Preemergence, Rate 250 g/ha, scale 0 to 10, 0 is no effect, 10 is complete control
[24] = Preemergence, Rate 500 g/ha, scale of 0 to 10 where 0 is no effect and 10 is complete control
[25] = Rate 62 g/ha, Postemergence, scale of 0 to 10 where 0 is no effect and 10 is complete control
[26] = Rate 125 g/ha, Postemergence, scale 0 to 10
[27] = Rate 500 g/ha, Postemergence, scale 0 to 10

SMILES: CC(C)N(C(=O)n1oc(=O)n(Cc2ccco2)c1=O)c1ccc(F)cc1F [Compound 208]
- S. Flatsedge plant response rating [1, 17]: 0
- S. Flatsedge plant response rating [1, 18]: 0
- S. Flatsedge plant response rating [1, 19]: 0
- S. Flatsedge plant response rating [1, 20]: 0
- Redroot pigweed plant response rating [2, 21]: 0
- Redroot pigweed plant response rating (0 to 10 scale) [2, 22]: 0
- Redroot pigweed plant response rating [2, 23]: 0
- Plant response rating, Redroot pigweed [2, 24]: 2
- Redroot pigweed plant response rating [2, 25]: 0
- Redroot pigweed plant response rating [2, 26]: 0
- Plant response rating (0 to 10; 0 is no effect, 10 is complete control), Redroot pigweed ([2]; Rate 250 g/ha, Postemergence): 0
- Redroot pigweed plant response rating [2, 27]: 0
- Wheat plant response rating [3, 21]: 0
- Wheat plant response rating [3, 23]: 0
- Plant response rating, Wheat [3, 24]: 0
- Wheat plant response rating [3, 25]: 0
- Wheat plant response rating [3, 26]: 0
- Plant response rating (0 to 10; 0 is no effect, 10 is complete control), Wheat ([3]; Rate 250 g/ha, Postemergence): 0
- Rice plant response rating [4, 17]: 0
- Rice plant response rating [4, 18]: 0
- Rice plant response rating [4, 19]: 0
- Rice plant response rating [4, 20]: 0
- Velvetleaf plant response rating [5, 21]: 0
- Velvetleaf plant response rating [5, 23]: 0
- Plant response rating, Velvetleaf [5, 24]: 3
- Velvetleaf plant response rating [5, 25]: 1
- Velvetleaf plant response rating [5, 26]: 1
- Plant response rating (0 to 10; 0 is no effect, 10 is complete control), Velvetleaf ([5]; Rate 250 g/ha, Postemergence): 1
- Blackgrass plant response rating [6, 21]: 0
- Blackgrass plant response rating (0 to 10 scale) [6, 22]: 0
- Blackgrass plant response rating [6, 23]: 0
- Plant response rating, Blackgrass [6, 24]: 3
- Blackgrass plant response rating [6, 25]: 0
- Blackgrass plant response rating [6, 26]: 0
- Plant response rating (0 to 10; 0 is no effect, 10 is complete control), Blackgrass ([6]; Rate 250 g/ha, Postemergence): 0
- Blackgrass plant response rating [6, 27]: 7
- Nutsedge plant response rating [7, 21]: 0
- Nutsedge plant response rating (0 to 10 scale) [7, 22]: 0
- Nutsedge plant response rating [7, 23]: 0
- Plant response rating, Nutsedge [7, 24]: 0
- Nutsedge plant response rating [7, 25]: 0
- Nutsedge plant response rating [7, 26]: 0
- Plant response rating (0 to 10; 0 is no effect, 10 is complete control), Nutsedge ([7]; Rate 250 g/ha, Postemergence): 0
- Nutsedge plant response rating [7, 27]: 0
- Crabgrass plant response rating [8, 21]: 4
- Crabgrass plant response rating (0 to 10 scale) [8, 22]: 5
- Crabgrass plant response rating [8, 23]: 6
- Plant response rating, Crabgrass [8, 24]: 6
- Crabgrass plant response rating [8, 25]: 0
- Crabgrass plant response rating [8, 26]: 0
- Plant response rating (0 to 10; 0 is no effect, 10 is complete control), Crabgrass ([8]; Rate 250 g/ha, Postemergence): 0
- Crabgrass plant response rating [8, 27]: 3
- Ducksalad plant response rating [9, 17]: 0
- Ducksalad plant response rating [9, 18]: 0
- Ducksalad plant response rating [9, 19]: 0
- Ducksalad plant response rating [9, 20]: 0
- Morningglory plant response rating [10, 21]: 0
- Morningglory plant response rating (0 to 10 scale) [10, 22]: 0
- Morningglory plant response rating [10, 23]: 0
- Plant response rating, Morningglory [10, 24]: 0
- Morningglory plant response rating [10, 25]: 1
- Morningglory plant response rating [10, 26]: 1
- Plant response rating (0 to 10; 0 is no effect, 10 is complete control), Morningglory ([10]; Rate 250 g/ha, Postemergence): 1
- Morningglory plant response rating [10, 27]: 3
- Giant foxtail plant response rating [11, 21]: 2
- Giant foxtail plant response rating (0 to 10 scale) [11, 22]: 8
- Giant foxtail plant response rating [11, 23]: 9
- Plant response rating, Giant foxtail [11, 24]: 10
- Giant foxtail plant response rating [11, 25]: 0
- Giant foxtail plant response rating [11, 26]: 0
- Plant response rating (0 to 10; 0 is no effect, 10 is complete control), Giant foxtail ([11]; Rate 250 g/ha, Postemergence): 0
- Giant foxtail plant response rating [11, 27]: 1
- Corn plant response rating [12, 21]: 0
- Corn plant response rating (0 to 10 scale) [12, 22]: 0
- Corn plant response rating [12, 23]: 0
- Plant response rating, Corn [12, 24]: 0
- Corn plant response rating [12, 25]: 0
- Corn plant response rating [12, 26]: 0
- Plant response rating (0 to 10; 0 is no effect, 10 is complete control), Corn ([12]; Rate 250 g/ha, Postemergence): 0
- Corn plant response rating [12, 27]: 0
- B. signalgrass plant response rating [13, 21]: 0
- B. signalgrass plant response rating (0 to 10 scale) [13, 22]: 0
- B. signalgrass plant response rating [13, 23]: 0
- Plant response rating, B. signalgrass [13, 24]: 0
- B. signalgrass plant response rating [13, 25]: 0
- B. signalgrass plant response rating ([13]; Rate 125 g/ha, Postemergence, scale 0 (no effect) to 10 (complete control)): 0
- Plant response rating (0 to 10; 0 is no effect, 10 is complete control), B. signalgrass ([13]; Rate 250 g/ha, Postemergence): 0
- B. signalgrass plant response rating ([13]; Rate 500 g/ha, Postemergence, scale 0 to 10, 0 no effect, 10 complete control): 3
- Wild oats plant response rating [14, 21]: 0
- Wild oats plant response rating [14, 23]: 0
- Plant response rating, Wild oats [14, 24]: 3
- Wild oats plant response rating [14, 25]: 0
- Wild oats plant response rating [14, 26]: 0
- Plant response rating (0 to 10; 0 is no effect, 10 is complete control), Wild oats ([14]; Rate 250 g/ha, Postemergence): 0
- Bedstraw plant response rating [15, 21]: 0
- Bedstraw plant response rating (0 to 10 scale) [15, 22]: 0
- Bedstraw plant response rating [15, 23]: 0
- Plant response rating, Bedstraw [15, 24]: 0
- Bedstraw plant response rating [15, 25]: 0
- Bedstraw plant response rating [15, 26]: 0
- Plant response rating (0 to 10; 0 is no effect, 10 is complete control), Bedstraw ([15]; Rate 250 g/ha, Postemergence): 0
- Bedstraw plant response rating [15, 27]: 5
- Soybean plant response rating [16, 21]: 0
- Soybean plant response rating (0 to 10 scale) [16, 22]: 0
- Soybean plant response rating [16, 23]: 0
- Plant response rating, Soybean [16, 24]: 0
- Soybean plant response rating [16, 25]: 1
- Soybean plant response rating [16, 26]: 1
- Plant response rating (0 to 10; 0 is no effect, 10 is complete control), Soybean ([16]; Rate 250 g/ha, Postemergence): 2
- Soybean plant response rating [16, 27]: 2
